Here are results for 9 compounds from EP0336326A2, “3-Aminodihydrothiophene-2-one peptide derivatives, processes for the preparation and therapeutic use” (POLI INDUSTRIA CHIMICA S.p.A., priority 1988, dated 1989).

The subject of one assay is hystamine shock. The assay can be described thus: antibronchospastic activity: histamine shock test. Format: in vivo. As to conditions: Cavia porcellus, ip; guinea pig; 0.25 mM/kg i.p.; compared with the basal values; read-out: increase resistance times against shock. How it is done: The antibronchospastic activity of the compounds of the present invention was evaluated by the hystamine shock test in guinea pig (P. C. Braga et al., Min. Pneumol., 23, 447, 1984).

Assay [1] can be described thus: mucolytic-expectorant activity: test of fluorescein elimination from the respiratory tract. Format: in vivo. As to conditions: po; 0.5 mM/kg orally; in comparison with the controls; read-out: increase in the dye excretion.
The test system of assay [2] is Bordetella pertussis induced edema. The assay can be described thus: antiinflammatory activity: Bordetella pertussis induced edema test. The assay is classed as in vivo. The settings on record: in Rattus norvegicus, po, 24 h, read-out: reduce the edema after 24 hours. How it is done:
The antiinflammatory activity was evaluated by the test of Bordetella pertussis induced edema in the rat (F. Capasso, Agents and Actions, 11, 741, 1981).

A further assay relates to CCl4intoxication. The assay can be described thus: hepatoprotective activity: CCl4 intoxication test. Format: in vivo. As to conditions: ip, rat, 0.25 mM/kg i.p. How it is done: The hepatoprotective activity was determined by the CCl4intoxication test in the rat (E. C. Ferreyra et al., Toxic. Appl. Pharmacol., 27, 558, 1974).
A further assay deals with 4% mucin suspension. The assay can be described thus: in vitro mucolytic activity test with a 4% mucin suspension. Format: biochemical. The settings on record: equimolar concentrations (0.00625 M), after hydrolysis with rat serum; 6250 µM.
Assay [3] concerns elastase-induced emphysema. The assay can be described thus: antiemphysema activity: pancreatic elastase induced emphysema, mean linear intercept (MLI) morphometry. The assay is classed as in vivo. The settings on record: hamster; 0.25 mM/kg per os, during 4 weeks. The source says:
The compounds of the present invention also display an interesting antiemphysema activity in the hamster (P.J. Stone et al., Amer. Rev. Respir. Dis., 124, 56, 1981). Emphysema induced by pancreatic elastase is morphometrically measured by evaluating, in µm, the mean linear intercept (MLI) (J. Kleinerman et al., Amer. Rev. Respir. Dis., 121, 381, 1980).

The mark [4] stands for this setting: in comparison with intoxicated controls, read-out: reduce serum GOT.
Setting [5] is: in comparison with the intoxicated controls, read-out: reduce serum GPT.

Like-named read-outs stand apart in the source and are kept apart here.

Turning to `CC(S)C(=O)NCC(=O)O` (stereo not shown) [tiopronin, reference compound], the change in vivo at 250 µM, 250 µmol/kg with hystamine shock was 166%. Besides, the change in vivo at 500 µM, 500 µmol/kg in assay [1] came out at 55.8%. Further, the inhibition in vivo at 500 µM, 500 µmol/kg in assay [2] was 28.6%. The inhibition in vivo at 250 µM, 250 µmol/kg in the assay with CCl4intoxication (setting [4]) was determined as 42.2%; in the assay with CCl4intoxication (setting [5]), 39.8%. In addition, the reductions in viscosity in the assay on 4% mucin suspension is recorded as 11.5%.

`CC(S)C(=O)NCC(=O)N1CSC[C@H]1C(=O)NC1CCSC1=O` (stereo partly drawn) [Compound VI, 3-{L-3-[(2-thiolpropionyl)glycyl]thiazolidin-4-carbonyl} aminodihydrothiophene-2-one]: the change in vivo at 250 µM, 250 µmol/kg with hystamine shock was found to be 191%. For the same compound, the change in vivo at 500 µM, 500 µmol/kg in assay [1] is 74.1%. Moreover, in assay [2], the inhibition in vivo at 500 µM, 500 µmol/kg was 38.7%. Further, the inhibition in vivo at 250 µM, 250 µmol/kg with CCl4intoxication (setting [4]) was determined as 58.5%; in the assay with CCl4intoxication (setting [5]), 52.8%. In assay [3], the “reduce the MLI increase in elastase-induced emphysema” value (shortened to “reduce the MLI increase”) turned out to be 35.6%. The reductions in viscosity with 4% mucin suspension was found to be 13.4%.

As for `CC(SC(=O)c1cccs1)C(=O)NCC(=O)NC1CCSC1=O` (racemic) [Compound III], in the assay on hystamine shock, the change in vivo at 250 µM, 250 µmol/kg was 186%. Also, the change in vivo at 500 µM, 500 µmol/kg in assay [1] was 71.3%. For the same compound, the inhibition in vivo at 500 µM, 500 µmol/kg in assay [2] came out at 41.8%. For the same compound, the inhibition in vivo at 250 µM, 250 µmol/kg in the assay with CCl4intoxication (setting [4]) stood at 54.7%; with CCl4intoxication (setting [5]), 54.1%. In addition, the “reduce the MLI increase” value in assay [3] is given as 32.7%. The reductions in viscosity in the assay on 4% mucin suspension is on record as 13.1%.

On to `CC(SC(=O)c1cccs1)C(=O)NCC(=O)N1CSC[C@H]1C(=O)NC1CCSC1=O` (stereo partly drawn) [Compound VIII, 3-{L-3-[(2-thenoylthiopropionyl)glycyl]thiazolidin-4-carbonyl}aminodihydrothiophene-2-one], for which, in the assay with hystamine shock, the change in vivo at 250 µM, 250 µmol/kg was 188%. The change in vivo at 500 µM, 500 µmol/kg in assay [1] was 70.8%. The inhibition in vivo at 500 µM, 500 µmol/kg in assay [2] amounted to 38.1%. Besides, the inhibition in vivo at 250 µM, 250 µmol/kg in the assay with CCl4intoxication (setting [4]) was 60.1%; in the assay with CCl4intoxication (setting [5]), 54.1%. In assay [3], the “reduce the MLI increase” value was 35.4%. In addition, the reductions in viscosity with 4% mucin suspension amounted to 13.2%.

With `CC(=O)N[C@@H](CS)C(=O)N[C@H]1CCSC1=O` [Compound IV, L-3-[(N-acetylcysteinyl)]aminodihydrothiophene-2-one], in the assay with hystamine shock, the change in vivo at 250 µM, 250 µmol/kg came out at 180%. In assay [1], the change in vivo at 500 µM, 500 µmol/kg was found to be 68.5%. The inhibition in vivo at 500 µM, 500 µmol/kg in assay [2] came out at 36.7%. In addition, the inhibition in vivo at 250 µM, 250 µmol/kg with CCl4intoxication (setting [4]) turned out to be 52.7%; in the assay on CCl4intoxication (setting [5]), 48.7%. Moreover, the “reduce the MLI increase” value in assay [3] was determined as 31.8%. The same compound returned a reductions in viscosity in the assay on 4% mucin suspension of 12.8%.

Regarding `CC(S)C(=O)NCC(=O)N1CSC[C@H]1C(=O)O` (stereo partly drawn) [Compound VII, L-3-[(2-thiolpropionyl)glycyl]thiazolidin-4-carboxylic acid], the change in vivo at 250 µM, 250 µmol/kg with hystamine shock was determined as 188%. Further, the change in vivo at 500 µM, 500 µmol/kg in assay [1] stood at 71.9%. Further, the inhibition in vivo at 500 µM, 500 µmol/kg in assay [2] was 37.9%. Also, the inhibition in vivo at 250 µM, 250 µmol/kg stood at 59.3% with CCl4intoxication (setting [4]) and 51.9% in the assay with CCl4intoxication (setting [5]). Besides, in assay [3], the “reduce the MLI increase” value stood at 34.9%. The same compound returned a reductions in viscosity in the assay with 4% mucin suspension of 13.6%.

Regarding `CC(=O)N[C@@H](CS)C(=O)O` [N-acetyl-cysteine, reference compound], the change in vivo at 250 µM, 250 µmol/kg in the assay on hystamine shock is 168%. For the same compound, in assay [1], the change in vivo at 500 µM, 500 µmol/kg turned out to be 45.6%. Besides, the inhibition in vivo at 500 µM, 500 µmol/kg in assay [2] stood at 23.2%. Besides, the inhibition in vivo at 250 µM, 250 µmol/kg in the assay with CCl4intoxication (setting [4]) was 39.9%; with CCl4intoxication (setting [5]), 37.8%. In the assay on 4% mucin suspension, this compound showed a reductions in viscosity of 10.8%.

With `CC(=O)N[C@@H](CSC(=O)c1cccs1)C(=O)NC1CCSC1=O` (stereo partly drawn) [Compound V, 3-(N-acetyl-S-(2-thenoyl)-cysteinyl)aminodihydrothiophene-2-one], in the assay on hystamine shock, the change in vivo at 250 µM, 250 µmol/kg worked out at 181%. For the same compound, in assay [1], the change in vivo at 500 µM, 500 µmol/kg turned out to be 67.6%. Moreover, the inhibition in vivo at 500 µM, 500 µmol/kg in assay [2] is 35.8%. Besides, the values for the inhibition in vivo at 250 µM, 250 µmol/kg in the assay on CCl4intoxication (setting [4]) and with CCl4intoxication (setting [5]) were 56.1% and 47.6%, respectively. Moreover, in assay [3], the “reduce the MLI increase” value turned out to be 32.7%. In the assay on 4% mucin suspension, the reductions in viscosity was determined as 12.4%.

For `CC(S)C(=O)NCC(=O)NC1CCSC1=O` (stereo not shown) [Compound II, 3-[(2-thiolpropionyl)glycyl]aminodihydrothiophene-2-one], the change in vivo at 250 µM, 250 µmol/kg with hystamine shock is 190%. Also, the change in vivo at 500 µM, 500 µmol/kg in assay [1] was found to be 72%. Besides, the inhibition in vivo at 500 µM, 500 µmol/kg in assay [2] was found to be 42.1%. Further, the inhibition in vivo at 250 µM, 250 µmol/kg in the assay with CCl4intoxication (setting [4]) is 55.8%; in the assay on CCl4intoxication (setting [5]), 52.3%. The “reduce the MLI increase” value in assay [3] was 30.6%. This compound also returned a reductions in viscosity in the assay on 4% mucin suspension of 13.4%.
